Where “and” joins values, the source holds several entries; their conditions need not be identical. Equal values may be shown once.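 The compound was tested at five concentrations on cells cultured in 96-well plates, with a 48-hour exposure period. GI50 is the concentration that inhibits growth by half. TGI is the concentration that stops growth completely.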 Where a SMILES comes first, the peptide text is derived from it. The star is where a group is joined. Boc = CC(C)(C)OC(=O)*; Bn = c1ccc(C*)cc1
Columns and labels:
Assay in all cases: inhibition of tumour cell growth, NCI panel, 48 h
786-0 renal = system: 786-0 renal
A549 NSCLC = system: A549 NSCLC
K-562 leukemia = system: K-562 leukemia
M14 melanoma = system: M14 melanoma
OVCAR-4 ovarian = system: OVCAR-4 ovarian
OVCAR-5 ovarian = system: OVCAR-5 ovarian
RPMI-8226 leukemia = system: RPMI-8226 leukemia
SF-539 CNS = system: SF-539 CNS
SK-MEL-28 melanoma = system: SK-MEL-28 melanoma
SR leukemia = system: SR leukemia
T-47D breast = system: T-47D breast
UACC-257 melanoma = system: UACC-257 melanoma
UACC-62 melanoma = system: UACC-62 melanoma

SMILES | TGI (786-0 renal) | TGI (A549 NSCLC) | TGI (K-562 leukemia) | TGI (M14 melanoma) | TGI (OVCAR-4 ovarian) | TGI (OVCAR-5 ovarian) | TGI (RPMI-8226 leukemia) | TGI (SF-539 CNS) | TGI (SK-MEL-28 melanoma) | TGI (SR leukemia) | TGI (T-47D breast) | TGI (UACC-257 melanoma) | TGI (UACC-62 melanoma) | GI50 (A549 NSCLC) | GI50 (M14 melanoma) | GI50 (OVCAR-5 ovarian) | GI50 (RPMI-8226 leukemia) | GI50 (SK-MEL-28 melanoma) | GI50 (T-47D breast)
CC(=O)Oc1ccc2cc(-c3ccc(OC(C)=O)c(OC(C)=O)c3)c(=O)oc2c1 | > 100 µM | > 100 µM | > 100 µM | > 100 µM | > 100 µM | > 100 µM | > 100 µM | > 100 µM | > 100 µM | > 100 µM | 62.1 µM | > 100 µM |  |  |  |  |  |  | 
CC(C(=O)n1ccnc1)N1c2ccccc2Sc2ccccc21 (stereo not drawn) | > 100 µM | > 100 µM | > 100 µM | > 100 µM | > 100 µM | > 100 µM | > 100 µM | > 100 µM | > 100 µM | > 100 µM | > 100 µM | > 100 µM | > 100 µM |  |  |  |  |  | 
CCCCCCCCCCOCCOCCOCCOCCCCC(O)CCCCCCCC1=C[C@H](C)OC1=O (stereo partly drawn) | 45.5 µM | 29.9 µM | 36.3 µM | 35.7 µM | 37.7 µM | 30.6 µM | 24 µM | 24.5 µM | 25.3 µM | 19.6 µM | 75 µM | 19.8 µM | 28.7 µM |  |  |  |  |  | 
Nc1cc(Cl)ccc1SSc1ccc(Cl)cc1N | 25.9 µM | > 100 µM | > 100 µM | 21.7 µM | 31.1 µM | 30.3 µM | > 100 µM | 31.5 µM | 40.6 µM | > 100 µM | 45.4 µM | 41.5 µM | 12.7 µM |  |  |  |  |  | 
COC(=O)/N=[N+](\[O-])C(c1ccccc1)c1ccccc1 | > 100 µM | > 100 µM | > 100 µM | > 100 µM | > 100 µM | > 100 µM | > 100 µM | > 100 µM | > 100 µM | > 100 µM | > 100 µM | > 100 µM | > 100 µM |  |  |  |  |  | 
Cc1ccccc1Nc1nc(NNC(=O)Cc2ccccc2)nc(NNC(=O)c2ccncc2)n1 | > 10 µM |  | > 10 µM | > 10 µM | > 10 µM |  | > 10 µM | > 10 µM | > 10 µM | > 10 µM | > 10 µM | > 10 µM | > 10 µM |  |  |  |  |  | 
O=S(=O)(c1cc(Cl)ccc1Cl)N1CCN(c2cccc(Cl)c2)CC1 | > 100 µM | > 100 µM | > 100 µM |  | > 100 µM | > 100 µM | > 100 µM | > 100 µM | > 100 µM | > 100 µM | > 100 µM | > 100 µM |  |  |  |  |  |  | 
CNC(=O)C(CC(C)C)NC(=O)C(C)NC(=O)C(Cc1ccc(OCc2ccccc2)cc1)NC(=O)C(COCc1ccccc1)NC(=O)OC(C)(C)C (stereo not drawn) (Boc-S(Bn)Y(Bn)AL-NHMe; configuration not given here) | 54.9 µM and 39.4 µM | > 100 µM and 51.4 µM | > 48 µM and 38.4 µM | > 100 µM and 28.2 µM | 41.2 µM and 45.4 µM | > 100 µM and 51.6 µM | 64.4 µM and 27 µM | > 57.8 µM | > 100 µM and 30.9 µM | > 46.1 µM and 86.9 µM | > 74 µM and 27.1 µM | > 100 µM | > 31.6 µM | > 70.9 µM and 16.9 µM | 42.1 µM and 15 µM | > 73.2 µM and 21.2 µM | 24.8 µM and 4.27 µM | > 62.5 µM and 14.1 µM | 28.2 µM and 5.15 µM
CCC1CCC2c3c([nH]c4ccc(C)cc34)C3C(=O)N(N(C)C)C(=O)C3C2C1 (stereo not drawn) | > 60.1 µM | > 100 µM | > 57 µM | > 100 µM | > 100 µM | > 100 µM | > 88.3 µM | 45.5 µM | > 100 µM | 48.6 µM | 41.2 µM | > 100 µM | > 100 µM |  |  |  |  |  | 
Cc1cn(C2CCN(CC3COC(C)(C)O3)O2)c(=O)[nH]c1=O (stereo not drawn) | > 100 µM | > 100 µM | > 100 µM | > 100 µM | > 100 µM | > 100 µM | > 100 µM | > 100 µM | > 100 µM | > 100 µM | > 100 µM | > 100 µM | > 100 µM |  |  |  |  |  | 
O=[N+]([O-])/C(Cl)=C/C(=C1/Nc2ccccc2O1)[N+](=O)[O-] | > 100 µM | > 100 µM | 87.1 µM | 51.1 µM | 84.4 µM |  | 66.1 µM | 59.4 µM | 35.9 µM | 47.1 µM | > 100 µM | 25.1 µM | 56.7 µM |  |  |  |  |  | 
CC(C)Cn1cnc2c(Cl)nc3ccccc3c21 | > 100 µM | > 100 µM | > 100 µM | > 100 µM | > 100 µM | > 100 µM | > 100 µM | > 100 µM | > 100 µM | 66.6 µM | > 100 µM | > 100 µM | > 100 µM |  |  |  |  |  | 
O=[N+]([O-])C(/C=C(\Cl)[N+](=O)[O-])=C(N1CCCCC1)N1CCCCC1 | > 100 µM | 54 µM | 66.9 µM | 57 µM | > 100 µM | > 100 µM | > 100 µM | 56.7 µM | > 100 µM | 51.1 µM | > 100 µM | 69.2 µM | 60.8 µM |  |  |  |  |  | 
O=C1C=C(c2ccccc2)O/C1=C\C(=O)c1ccc(Cl)cc1 | 28.8 µM |  | 73 µM | 41.5 µM | 58.2 µM | 88 µM | > 100 µM | > 100 µM | 38.5 µM | > 100 µM | 74.1 µM | 37.1 µM | 30.4 µM |  |  |  |  |  | 
C(#CC1(Nc2ccccc2)CCN(Cc2ccccc2)CC1)C1(Nc2ccccc2)CCN(Cc2ccccc2)CC1 | 39.5 µM | > 56.2 µM | 16.1 µM | > 100 µM | 53.7 µM | > 56.2 µM | 4.88 µM | 34.9 µM | 26.7 µM | > 24.8 µM | > 100 µM |  | 21.4 µM |  |  |  |  |  | 
CC(=O)Nc1cc2nc3n(c2cc1C)CCC3OC(C)=O (stereo not drawn) | > 100 µM | > 100 µM | > 100 µM | > 100 µM | > 100 µM | > 100 µM | > 100 µM | > 100 µM | > 100 µM | > 100 µM | > 100 µM | > 100 µM | > 100 µM |  |  |  |  |  | 
CC1(C)CCCCCCCCCC2CC2CCC(C)(C)C1=O (stereo not drawn) | 31.5 µM | 57.5 µM | 32.6 µM | 48.6 µM | > 100 µM | 40 µM | 75.9 µM | 44.3 µM | 72.8 µM | 53.5 µM | 47.1 µM | 46.2 µM | > 100 µM |  |  |  |  |  | 
CCOC(=O)C1(N)CC1 | > 100 µM | > 100 µM | > 100 µM | > 100 µM | > 100 µM | > 100 µM | > 100 µM | > 100 µM | > 100 µM | > 100 µM | > 100 µM | > 100 µM |  |  |  |  |  |  | 
COC(=O)[C@]12CSC[C@H]1C[C@H](c1cccc3ccccc13)N2 | > 100 µM | > 100 µM | > 100 µM | > 100 µM |  | > 100 µM | > 100 µM | > 100 µM | > 100 µM | > 100 µM | > 100 µM | > 100 µM | > 100 µM |  |  |  |  |  | 
CCCC(=O)OC[n+]1ccc(-c2c(COC(=O)NC(C)C)c(COC(=O)NC(C)C)c3n2CCC3)cc1 | > 100 µM | > 100 µM | > 100 µM | > 100 µM | > 100 µM | > 100 µM | > 100 µM | > 100 µM | > 100 µM | > 100 µM | > 100 µM | > 100 µM | > 100 µM |  |  |  |  |  | 
COc1ccc2c(c1OC)C(=O)N/C2=C\c1c(CCN(C)C)cc2c(c1OC)OCO2 | > 100 µM | > 100 µM | > 100 µM | > 100 µM | > 100 µM | > 100 µM | > 100 µM | > 100 µM | > 100 µM | > 100 µM | > 100 µM | > 100 µM |  |  |  |  |  |  | 
C#CCOCn1cc(C)c(=O)[nH]c1=O | > 100 µM | > 100 µM | > 100 µM | > 100 µM |  | > 100 µM | > 100 µM | > 100 µM | > 100 µM | > 100 µM | > 100 µM | > 100 µM | > 100 µM |  |  |  |  |  | 
CC(=O)NC1COC(COC(=O)CCCCCCCCCCNC(=O)c2ccc([N+](=O)[O-])c3c(=O)c4ccccc4[nH]c23)C(O)C1OC(C)C(=O)NC(C(=O)NC(CCC(N)=O)C(=O)OCc1ccccc1)C(C)C (stereo not drawn) | > 58.6 µM | 71.9 µM | 54.2 µM | 66.3 µM | 30.3 µM | > 81.5 µM | 23.1 µM | 58.3 µM | 41.7 µM | 46.5 µM | 13 µM | 38.6 µM | 58.9 µM |  |  |  |  |  | 
O=C(CN=C(CN(c1ccccc1)c1ccccc1)Oc1ccc(Cl)cc1Cl)n1ccnc1 | > 100 µM | > 100 µM | > 100 µM | > 100 µM | > 100 µM | > 100 µM | > 100 µM | > 100 µM | > 100 µM | > 100 µM | > 100 µM | > 100 µM | > 100 µM |  |  |  |  |  | 
Cc1cc(C)nc(NS(=O)(=O)c2ccc(NC(=O)NC(F)(F)F)cc2)n1 | > 100 µM | > 100 µM | > 100 µM | > 100 µM |  | > 100 µM | > 100 µM | > 100 µM | > 100 µM | > 100 µM | > 100 µM | > 100 µM |  |  |  |  |  |  | 
Cc1cccc(C)c1N=Nc1ccc(O)c(CN(C)C)c1 | > 100 µM | > 100 µM | > 100 µM | 58.1 µM | > 100 µM | > 100 µM | > 100 µM | > 100 µM | 60.6 µM | > 100 µM | 79.3 µM | > 100 µM | 64.6 µM |  |  |  |  |  | 
O=C1/C(=C/c2ccc(O)c(O)c2)CC/C1=C\c1ccc(O)c(O)c1 | 38.2 µM | > 79.9 µM | 27.7 µM | 9.56 µM | > 57.5 µM | > 100 µM | 76.3 µM | 9.64 µM | > 100 µM | > 29.5 µM | 63.3 µM | > 100 µM | 26 µM |  |  |  |  |  | 
